pIC50: −log10 of the molar value.
Experiments:
MCR-4 = molecular target: T1, MCR-4 (Homo sapiens, UniProt P32245); assay: Melanocortin receptor binding assay, competition with 125I-HP 467, HEK 293 cells expressing hMCR-4; conditions: inhibition of binding of 125I-HP 467, HEK 293 cells expressing MCR-4, TRG 2414 library; for pIC50: read-out: MC-4 IC50
T1 construct: expressed in transfected cells; host or cells: HEK 293
Outline: (§1)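 Intact-cell competition binding, 2.5 hr at 37 °C, in PBS/10% calf serum/1 mM CaCl2; hMCR-4 cells at 4×10^3 per tube, hMCR-1 cells at 2×10^4 per tube. Filtration on BSA/CaCl2-soaked GF/B, cold 50 mM Tris pH 7.4 washes, scintillation count.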

MCR-1 = molecular target: T2, MCR-1 (Homo sapiens, UniProt Q01726); assay: Melanocortin receptor binding assay, competition with 125I-HP 467, HEK 293 cells expressing hMCR-1; conditions: inhibition of binding of 125I-HP 467, HEK 293 cells expressing MCR-1, TRG 2414 library; for pIC50: read-out: MC-1 IC50
T2 construct: expressed in transfected cells; host or cells: HEK 293
Outline: as §1

T1 sequence (P32245 whole entry): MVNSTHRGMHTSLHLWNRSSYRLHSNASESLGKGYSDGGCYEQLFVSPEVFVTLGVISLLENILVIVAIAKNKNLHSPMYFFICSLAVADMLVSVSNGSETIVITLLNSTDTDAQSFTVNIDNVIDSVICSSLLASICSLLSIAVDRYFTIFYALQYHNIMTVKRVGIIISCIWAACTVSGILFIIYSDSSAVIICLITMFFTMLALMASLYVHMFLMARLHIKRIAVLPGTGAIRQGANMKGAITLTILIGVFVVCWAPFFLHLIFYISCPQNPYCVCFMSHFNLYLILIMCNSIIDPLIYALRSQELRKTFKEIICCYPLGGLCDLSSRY
T2 sequence (Q01726 whole entry): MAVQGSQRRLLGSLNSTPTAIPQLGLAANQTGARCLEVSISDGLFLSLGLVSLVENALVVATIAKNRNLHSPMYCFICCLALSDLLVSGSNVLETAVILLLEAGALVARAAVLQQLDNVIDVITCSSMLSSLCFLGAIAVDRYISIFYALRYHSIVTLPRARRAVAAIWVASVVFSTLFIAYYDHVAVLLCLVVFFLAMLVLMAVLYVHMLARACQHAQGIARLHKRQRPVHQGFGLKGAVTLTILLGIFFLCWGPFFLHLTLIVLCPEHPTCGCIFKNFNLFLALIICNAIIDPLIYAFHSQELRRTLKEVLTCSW

Compound | pIC50 (MCR-4) | MC-1 IC50 (MCR-1) | pIC50 (MCR-1) | MC-4 IC50 (MCR-4)
CC(C)Cc1ccc(C(C)CNC(CN)CCCCN2Cc3ccccc3C(CNCCc3cccc(Cl)c3)C2c2cccc(Oc3ccccc3)c2)cc1 (stereo not drawn) [TRG 2414-96] | 4.30 | no fit |  | 
COc1cccc(CNCC2c3ccccc3CN(CCCCC(CN)NCc3ccccc3)C2c2cccc(Oc3ccccc3)c2)c1 (stereo not drawn) [TRG 2414-99] | 5.16 |  | 5.23 | 
COc1cccc(CNCC2c3ccccc3CN(CCCCC(CN)NCC(C)c3ccc(CC(C)C)cc3)C2c2cccc(Oc3ccccc3)c2)c1 (stereo not drawn) [TRG 2414-100] |  | no fit |  | no fit
COc1ccc(CNCC2c3ccccc3CN(CCCCC(N)CN)C2c2cccc(Oc3ccccc3)c2)cc1 (stereo not drawn) [TRG 2414-101] | 5.90 |  | 5.60 | 
COc1ccc(CNCC2c3ccccc3CN(CCCCC(CN)NCCc3ccccc3)C2c2cccc(Oc3ccccc3)c2)cc1 (stereo not drawn) [TRG 2414-102] | 5.16 |  | 4.91 | 
COc1ccc(CNCC2c3ccccc3CN(CCCCC(CN)NCC(C)c3ccc(CC(C)C)cc3)C2c2cccc(Oc3ccccc3)c2)cc1 (stereo not drawn) [TRG 2414-104] | 4.34 | no fit |  | 
COc1ccc(CCNCC2c3ccccc3CN(CCCCC(N)CN)C2c2cccc(Oc3ccccc3)c2)cc1 (stereo not drawn) [TRG 2414-105] | 5.57 |  | 5.43 | 
COc1ccc(CCNCC2c3ccccc3CN(CCCCC(CN)NCCc3ccccc3)C2c2cccc(Oc3ccccc3)c2)cc1 (stereo not drawn) [TRG 2414-106] | 5.00 |  | 4.89 | 
COc1ccc(CCNCC2c3ccccc3CN(CCCCC(CN)NCc3ccccc3)C2c2cccc(Oc3ccccc3)c2)cc1 (stereo not drawn) [TRG 2414-107] | 5.09 |  | 5.18 | 
COc1ccc(CCNCC2c3ccccc3CN(CCCCC(CN)NCC(C)c3ccc(CC(C)C)cc3)C2c2cccc(Oc3ccccc3)c2)cc1 (stereo not drawn) [TRG 2414-108] | 4.31 | no fit |  | 
NCC(N)CCCCN1Cc2ccccc2C(CNCc2ccccc2)C1c1cccc(Oc2ccccc2)c1 (stereo not drawn) [TRG 2414-109] | 6.04 |  | 5.51 | 
NCC(CCCCN1Cc2ccccc2C(CNCc2ccccc2)C1c1cccc(Oc2ccccc2)c1)NCCc1ccccc1 (stereo not drawn) [TRG 2414-110] | 5.00 |  | 4.95 | 
NCC(CCCCN1Cc2ccccc2C(CNCc2ccccc2)C1c1cccc(Oc2ccccc2)c1)NCc1ccccc1 (stereo not drawn) [TRG 2414-111] | 4.88 |  | 5.11 | 
CC(C)Cc1ccc(C(C)CNC(CN)CCCCN2Cc3ccccc3C(CNCc3ccccc3)C2c2cccc(Oc3ccccc3)c2)cc1 (stereo not drawn) [TRG 2414-112] | 4.29 | no fit |  | 
NCC(N)CCCCN1Cc2ccccc2C(CNC2CCCCCC2)C1c1cccc(Oc2ccccc2)c1 (stereo not drawn) [TRG 2414-113] | 5.75 |  | 5.53 | 
NCC(CCCCN1Cc2ccccc2C(CNC2CCCCCC2)C1c1cccc(Oc2ccccc2)c1)NCCc1ccccc1 (stereo not drawn) [TRG 2414-114] | 5.32 |  | 5.05 | 
NCC(CCCCN1Cc2ccccc2C(CNC2CCCCCC2)C1c1cccc(Oc2ccccc2)c1)NCc1ccccc1 (stereo not drawn) [TRG 2414-115] | 5.25 |  | 5.43 | 
CC(C)Cc1ccc(C(C)CNC(CN)CCCCN2Cc3ccccc3C(CNC3CCCCCC3)C2c2cccc(Oc3ccccc3)c2)cc1 (stereo not drawn) [TRG 2414-116] |  |  | 4.27 | no fit
NCC(N)CCCCN1Cc2ccccc2C(CNC2CCCCC2)C1c1cccc(Oc2ccccc2)c1 (stereo not drawn) [TRG 2414-117] | 5.90 |  | 5.71 | 
NCC(CCCCN1Cc2ccccc2C(CNC2CCCCC2)C1c1cccc(Oc2ccccc2)c1)NCc1ccccc1 (stereo not drawn) [TRG 2414-119] | 5.32 |  | 5.30 | 
CC(C)Cc1ccc(C(C)CNC(CN)CCCCN2Cc3ccccc3C(CNC3CCCCC3)C2c2cccc(Oc3ccccc3)c2)cc1 (stereo not drawn) [TRG 2414-120] | 4.23 |  | 4.60 | 
NCC(N)CCCCN1Cc2ccccc2C(CNCc2ccccc2C(F)(F)F)C1c1ccc(Oc2ccccc2)cc1 (stereo not drawn) [TRG 2414-121] | 4.56 |  | 5.09 | 
NCC(CCCCN1Cc2ccccc2C(CNCc2ccccc2C(F)(F)F)C1c1ccc(Oc2ccccc2)cc1)NCCc1ccccc1 (stereo not drawn) [TRG 2414-122] | 4.26 | no fit |  | 
NC[C@H](CCCCN1Cc2ccccc2C(CNCc2ccccc2C(F)(F)F)C1c1ccc(Oc2ccccc2)cc1)NCc1ccccc1 (stereo partly drawn) [TRG 2414-123] |  |  | 4.76 | no fit
CC(C)Cc1ccc(C(C)CNC(CN)CCCCN2Cc3ccccc3C(CNCc3ccccc3C(F)(F)F)C2c2ccc(Oc3ccccc3)cc2)cc1 (stereo not drawn) [TRG 2414-124] |  | no fit |  | no fit
CCOc1ccccc1CNCC1c2ccccc2CN(CCCCC(N)CN)C1c1ccc(Oc2ccccc2)cc1 (stereo not drawn) [TRG 2414-125] | 5.09 |  | 6.15 | 
CCOc1ccccc1CNCC1c2ccccc2CN(CCCCC(CN)NCCc2ccccc2)C1c1ccc(Oc2ccccc2)cc1 (stereo not drawn) [TRG 2414-126] | 4.73 |  | 5.19 | 

From patent US6608082B1, “Treatment of erectile dysfunction using isoquinoline compound melanocortin receptor ligands” (Lion Bioscience AG, priority 1998, dated 2003)
